In one assay the target is GTPase KRas (Homo sapiens, UniProt P01116). In words: Binding affinity to KRas (unknown origin).
For assay [1], the target named is T1, DNA repair protein RAD51 homolog 1 (Homo sapiens, UniProt Q06609).
T1 sequence (Q06609 whole entry): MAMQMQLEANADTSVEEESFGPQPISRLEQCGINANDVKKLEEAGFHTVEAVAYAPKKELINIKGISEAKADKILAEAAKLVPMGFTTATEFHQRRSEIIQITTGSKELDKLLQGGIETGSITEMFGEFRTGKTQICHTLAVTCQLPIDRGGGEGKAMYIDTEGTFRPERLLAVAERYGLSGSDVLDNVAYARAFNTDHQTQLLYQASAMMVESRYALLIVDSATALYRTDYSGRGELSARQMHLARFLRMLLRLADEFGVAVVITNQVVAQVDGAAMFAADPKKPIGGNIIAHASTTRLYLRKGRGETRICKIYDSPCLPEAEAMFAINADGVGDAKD
In words: Binding affinity to RAD51 (unknown origin) by isothermal calorimetry. A general note: ITC needs no label: the signal is the heat of the interaction.

Assay [2] deals with Hepacivirus hominis. Kind of assay: Inhibition of HCV NS3 protease at 0.01 uM by FRET assay.
The next assay concerns Hepatitis C virus. In words: Antiviral activity against HCV by cell based viral replicon assay. The assay is classed as functional, organism-based, Hepacivirus hominis. For orientation: Replicon systems follow genome replication, usually without infectious particles.
For assay [3], the system named is Hepacivirus hominis. Kind of assay: Inhibition of HCV NS3 protease at 500 uM by FRET assay.

pEC50, pKd: −log10 of the molar value.

Sequence of GTPase KRas (P01116 whole entry): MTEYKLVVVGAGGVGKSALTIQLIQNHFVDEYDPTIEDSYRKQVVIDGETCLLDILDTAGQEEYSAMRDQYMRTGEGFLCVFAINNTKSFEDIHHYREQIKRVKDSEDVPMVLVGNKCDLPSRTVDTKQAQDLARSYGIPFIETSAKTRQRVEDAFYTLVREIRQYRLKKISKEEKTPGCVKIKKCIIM

A word on the pKd: it is −log10 of the Kd, conventionally taken in molar units. Read a low pKd as a large Kd. `CC[C@H](C)[C@H](N)C(=O)Nc1ccc2nc(Cc3c[nH]c4ccccc34)[nH]c2c1` showed a negative-log Kd (pKd) at GTPase KRas of 3.72. For `N[C@@H](Cc1c[nH]c2ccccc12)C(=O)OCCc1ccccc1`, the negative logarithm of the Kd (pKd) in assay [1] is 4.46.

In assay [1], `O=C(N[C@@H](Cc1c[nH]c2ccccc12)C(=O)OCCc1ccccc1)c1ccccc1` showed a pKd of 5.52. The same measure, in the same setting: the value for `O=S(=O)(NCCc1c[nH]c2ccccc12)c1cc(Br)c(Cl)s1` was 5.89; that for `Oc1ccc2[nH]ccc2c1` was 2.68. The molecule `COC(=O)[C@@H](N)Cc1c[nH]c2ccccc12` [TRYPTOPHAN METHYL ESTER] had a pKd in assay [1] of 3.24. Usually inhibition stands for the share of the control response that was lost under treatment. Higher therefore signals a response far below the control. For orientation: pEC50 means −log10 of the EC50, conventionally taken in molar units. A lower pEC50 goes with a large EC50. In turn, `CC[C@@H](N[C@@H](C)CC(=O)NCCN)c1ccc(Cl)c(Oc2ccccc2)c1F` had an inhibition in the assay on Hepacivirus hominis [2] of 68%. The molecule further showed a pEC50 with Hepatitis C virus of 8.10. `NCc1ccc(Oc2ccccc2)cc1` had an inhibition in the assay with Hepacivirus hominis [3] of 55%. Take `Cc1[nH]c2ccccc2c1Cc1nc2ccccc2[nH]1`: the negative-log Kd (pKd) on GTPase KRas is 2.70.

Values taken from ChEMBL document CHEMBL3425399, “Progress in discovery of small-molecule modulators of protein-protein interactions via fragment screening” (Bioorg Med Chem Lett, 2015).
